Results reported in ChEMBL document CHEMBL4359906, “Design and synthesis of new N-terminal fatty acid modified-antimicrobial peptide analogues with potent in vitro biological activity” (Eur J Med Chem, 2019).
≈ marks a conversion by molar mass, not a printed value. Calls of active or inactive are those of the source. No cut-off for these calls is given here. Where a SMILES comes first, the peptide text is derived from it.

Key:
[1] = system: Staphylococcus aureus; assay: Ratio of antibacterial activity against Staphylococcus aureus ATCC 25923 in presence of NaCl to antibacterial activity against Staphylococcus aureus ATCC 25923; format: functional
[2] = Selectivity index, ratio of MHC10 for human RBC to geometric mean of peptide MIC for gram negative bacteria; format: toxicity; conditions: human red blood cells, read-out: Selectivity Index
[3] = system: Staphylococcus aureus; assay: Antibacterial activity against Staphylococcus aureus ATCC 25923 after 18 hrs by CLSI based broth microdilution method; format: functional; conditions: ATCC 25923, 18 h
[4] = system: Staphylococcus aureus; assay: Antibacterial activity against methicillin-resistant Staphylococcus aureus 936 after 18 hrs by CLSI based broth microdilution method; format: functional; conditions: Staphylococcus aureus, 936, 18 h
[5] = system: Staphylococcus aureus; assay: Ratio of antibacterial activity against Staphylococcus aureus ATCC 25923 in presence of KCl to antibacterial activity against Staphylococcus aureus ATCC 25923; format: functional
[6] = system: Escherichia coli; assay: Ratio of antibacterial activity against Escherichia coli ATCC 25922 in presence of FeCl3 to antibacterial activity against Escherichia coli ATCC 25922; format: functional
[7] = system: Escherichia coli; assay: Antimicrobial activity against Escherichia coli ATCC 25922 preincubated for 6 hrs in presence of 10% mouse serum and measured after 18 hrs by CLSI-based broth microdilution assay (reference value: 64 microM); format: functional
[8] = system: Escherichia coli; assay: Ratio of antibacterial activity against Escherichia coli ATCC 25922 in presence of NaCl to antibacterial activity against Escherichia coli ATCC 25922; format: functional
[9] = system: Staphylococcus aureus; assay: Antibacterial activity against Staphylococcus aureus ATCC 25923 after 18 hrs in presence of NaCl by CLSI based broth microdilution method (reference value: 64 microM); format: functional; conditions: ATCC 25923, 18 h
[10] = system: Escherichia coli; assay: Antimicrobial activity against Escherichia coli ATCC 25922 at 1 mM preincubated for 6 hrs in presence of 2 ug/ml chymotrypsin and measured after 18 hrs by microplate reader analysis; format: functional, organism-based
[11] = system: Escherichia coli; assay: Ratio of antibacterial activity against Escherichia coli ATCC 25922 in presence of KCl to antibacterial activity against Escherichia coli ATCC 25922; format: functional
[12] = system: Escherichia coli; assay: Antibacterial activity against Escherichia coli ATCC 43837 after 18 hrs by CLSI based broth microdilution method; format: functional; conditions: ATCC 43837, 18 h
[13] = system: Escherichia coli; assay: Potentiation of polymyxin B-induced antibacterial activity against Escherichia coli ATCC 25922 assessed as FICI after 18 hrs by checker board assay; format: functional
[14] = system: Escherichia coli; assay: Disruption of membrane integrity in Escherichia coli ATCC 25922 assessed as membrane damage by measuring PI fluorescence at 2 times of MIC incubated for 1 hr by PI dye based flow cytometric analysis (reference value: 1.35%); format: functional
[15] = system: Escherichia coli; assay: Induction of ROS generation in Escherichia coli ATCC 25922; format: functional, organism-based
[16] = system: Erythrocyte; assay: Hemolytic activity in human RBC measured after 1 hr by microplate reader analysis; format: ADME, cell-based
[17] = system: Escherichia coli; assay: Ratio of antibacterial activity against Escherichia coli ATCC 25922 in presence of MgCl2 to antibacterial activity against Escherichia coli ATCC 25922; format: functional
[18] = system: Escherichia coli; assay: Antibacterial activity against Escherichia coli ATCC 25922 after 18 hrs by CLSI based broth microdilution method; format: functional; conditions: ATCC 25922, 18 h
[19] = system: Staphylococcus aureus; assay: Ratio of antibacterial activity against Staphylococcus aureus ATCC 25923 in presence of MgCl2 to antibacterial activity against Staphylococcus aureus ATCC 25923; format: functional
[20] = system: Staphylococcus aureus; assay: Antibacterial activity against Staphylococcus aureus ATCC 25923 after 18 hrs in presence of FeCl3 by CLSI based broth microdilution method (reference value: 64 microM); format: functional; conditions: ATCC 25923, 18 h
[21] = system: Bacillus subtilis; assay: Antibacterial activity against Bacillus subtilis ATCC 23857 after 18 hrs by CLSI based broth microdilution method; format: functional; conditions: ATCC 23857, 18 h
[22] = system: Escherichia coli; assay: Potentiation of rifampicin-induced antibacterial activity against Escherichia coli ATCC 25922 assessed as FICI after 18 hrs by checker board assay; format: functional
[23] = system: Escherichia coli; assay: Antibacterial activity against Escherichia coli ATCC 25922 after 18 hrs in presence of KCl by CLSI based broth microdilution method (reference value: 64 microM); format: functional; conditions: ATCC 25922, 18 h
[24] = system: Escherichia coli; assay: Antibacterial activity against Escherichia coli ATCC 25922 after 18 hrs in presence of FeCl3 by CLSI based broth microdilution method (reference value: 64 microM); format: functional; conditions: ATCC 25922, 18 h
[25] = system: Escherichia coli; assay: Induction of membrane disruption in Escherichia coli ATCC 25922 assessed as rough membrane surface at 4 times of MIC after 2 hrs by SEM analysis; format: functional, organism-based
[26] = system: Staphylococcus aureus; assay: Antibacterial activity against Staphylococcus aureus ATCC 25923 after 18 hrs in presence of KCl by CLSI based broth microdilution method (reference value: 64 microM); format: functional; conditions: ATCC 25923, 18 h
[27] = Selectivity index, ratio of MHC10 for human RBC to geometric mean of peptide MIC for gram positive bacteria; format: toxicity; conditions: human red blood cells, read-out: Selectivity Index
[28] = system: Escherichia coli; assay: Antibacterial activity against Escherichia coli ATCC 25922 after 18 hrs in presence of MgCl2 by CLSI based broth microdilution method (reference value: 64 microM); format: functional; conditions: ATCC 25922, 18 h
[29] = system: Escherichia coli; assay: Induction of membrane disruption in Escherichia coli ATCC 25922 assessed as fracture in membrane at 4 times of MIC after 2 hrs by SEM analysis; format: functional, organism-based
[30] = system: Klebsiella pneumoniae; assay: Potentiation of polymyxin B-induced antibacterial activity against Klebsiella pneumoniae ATCC 700603 assessed as FICI after 18 hrs by checker board assay; format: functional
[31] = system: Klebsiella pneumoniae; assay: Antibacterial activity against Klebsiella pneumoniae ATCC 700603 after 18 hrs by CLSI based broth microdilution method; format: functional; conditions: Klebsiella pneumoniae, 700603, 18 h
[32] = system: Klebsiella pneumoniae; assay: Potentiation of rifampicin-induced antibacterial activity against Klebsiella pneumoniae ATCC 700603 assessed as FICI after 18 hrs by checker board assay; format: functional
[33] = system: Escherichia coli; assay: Antimicrobial activity against Escherichia coli ATCC 25922 at 1 mM preincubated for 6 hrs in presence of 0.2 ug/ml trypsin and measured after 18 hrs by microplate reader analysis; format: functional, organism-based
[34] = system: Staphylococcus aureus; assay: Antibiofilm activity against Staphylococcus aureus ATCC 25923 at 1 to 2 times of MIC after 24 hrs by crystal violet staining based assay; format: functional, organism-based
[35] = system: Staphylococcus aureus; assay: Ratio of antibacterial activity against Staphylococcus aureus ATCC 25923 in presence of FeCl3 to antibacterial activity against Staphylococcus aureus ATCC 25923; format: functional
[36] = system: Escherichia coli; assay: Ratio of MIC for Escherichia coli ATCC 25922 preincubated for 1 hr in presence of 10% mouse serum and measured after 18 hrs to MIC for antibacterial activity against Escherichia coli ATCC 25922 after 18 hrs; format: functional
[37] = system: Pseudomonas aeruginosa; assay: Potentiation of polymyxin B-induced antibacterial activity against Pseudomonas aeruginosa ATCC 27853 assessed as FICI after 18 hrs by checker board assay; format: functional
[38] = system: Pseudomonas aeruginosa; assay: Antibacterial activity against Pseudomonas aeruginosa ATCC 27853 after 18 hrs by CLSI based broth microdilution method; format: functional; conditions: ATCC 27853, 18 h
[39] = system: Staphylococcus aureus; assay: Antibacterial activity against Staphylococcus aureus ATCC 25923 after 18 hrs in presence of MgCl2 by CLSI based broth microdilution method (reference value: 64 microM); format: functional; conditions: ATCC 25923, 18 h
[40] = system: Escherichia coli; assay: Induction of membrane disruption in Escherichia coli ATCC 25922 assessed as degeneration in membrane at 4 times of MIC after 2 hrs by SEM analysis; format: functional, organism-based
[41] = system: Escherichia coli; assay: Antimicrobial activity against Escherichia coli ATCC 25922 preincubated for 1 hr in presence of 10% mouse serum and measured after 18 hrs by CLSI-based broth microdilution assay (reference value: 64 microM); format: functional
[42] = system: Escherichia coli; assay: Disruption of membrane integrity in Escherichia coli ATCC 25922 assessed as membrane damage by measuring PI fluorescence at 4 times of MIC incubated for 1 hr by PI dye based flow cytometric analysis (reference value: 1.35%); format: functional
[43] = system: Escherichia coli; assay: Induction of membrane disruption in Escherichia coli ATCC 25922 assessed as corrugated membrane surface at 4 times of MIC after 2 hrs by SEM analysis; format: functional, organism-based
[44] = system: Escherichia coli; assay: Antibacterial activity against Escherichia coli ATCC 25922 after 18 hrs in presence of NaCl by CLSI based broth microdilution method (reference value: 64 microM); format: functional; conditions: ATCC 25922, 18 h
[45] = system: Pseudomonas aeruginosa; assay: Potentiation of rifampicin-induced antibacterial activity against Pseudomonas aeruginosa ATCC 27853 assessed as FICI after 18 hrs by checker board assay; format: functional
[46] = system: Escherichia coli; assay: Ratio of MIC for Escherichia coli ATCC 25922 preincubated for 6 hrs in presence of 10% mouse serum and measured after 18 hrs to MIC for antibacterial activity against Escherichia coli ATCC 25922 after 18 hrs; format: functional
[47] = system: Escherichia coli; assay: Ratio of MIC for antibacterial activity against Escherichia coli ATCC 25922 after 15 passages to MIC for antibacterial activity against Escherichia coli ATCC 25922 incubated for 18 hrs; format: functional
[48] = system: Escherichia coli; assay: Antibacterial activity against Escherichia coli ATCC 25922 at 0.5 times MIC incubated for 18 hrs measured at 1 passages by CLSI based broth microdilution method; format: functional, organism-based

CC[C@H](C)[C@H](NC(=O)[C@H](CCCNC(=N)N)NC(=O)[C@H](CCCCN)NC(=O)[C@H](CC(C)C)NC(=O)[C@H](CC(C)C)NC(=O)CN)C(=O)N[C@@H](CCCCN)C(=O)N[C@H](C(=O)N[C@@H](CC(C)C)C(=O)N[C@@H](CC(C)C)C(N)=O)[C@@H](C)O [ANOPLIN] (H-GLLKRIKTLL-NH2)
Ratio [1]: 2 - 4 | selectivity ratio [2]: 13.5 | MIC [3]: 64 µM (≈ 73.8 µg/mL) | MIC [4]: 64 µM (≈ 73.8 µg/mL) | Ratio [5]: 2 - 4 | Ratio [6]: 2 - 4 | MIC [7]: > 128 µM | Ratio [8]: 2 - 4 | MIC [9]: > 128 µM | Activity [10]: inactive | Ratio [11]: 2 - 4 | MIC [12]: 8 µM (≈ 9.23 µg/mL) | fractional inhibitory concentration index (FICI) [13]: 0.1875 | Activity [14]: 20.4% | Activity [15]: inactive | MHC10 [16]: > 256 µM | Ratio [17]: 2 - 4 | MIC [18]: 64 µM (≈ 73.8 µg/mL) | Ratio [19]: 2 - 4 | MIC [20]: 128 µM | MIC [21]: 8 µM (≈ 9.23 µg/mL) | fractional inhibitory concentration index (FICI) [22]: 0.125 | MIC [23]: 32 µM | MIC [24]: 32 µM | Activity [25]: Active | MIC [26]: 64 µM | selectivity ratio [27]: 11.3 | MIC [28]: 32 µM | Activity [29]: Active | fractional inhibitory concentration index (FICI) [30]: 0.3125 | MIC [31]: 64 µM (≈ 73.8 µg/mL) | fractional inhibitory concentration index (FICI) [32]: 0.125 | Activity [33]: inactive | inhibition [34]: Active | Ratio [35]: 2 - 4 | Ratio [36]: 1 | fractional inhibitory concentration index (FICI) [37]: 0.3125 | MIC [38]: 16 µM (≈ 18.5 µg/mL) | MIC [39]: > 128 µM | Activity [40]: Active | MIC [41]: 64 µM | Activity [42]: 62.1% | Activity [43]: Active | MIC [44]: 128 µM | fractional inhibitory concentration index (FICI) [45]: 0.1875 | Ratio [46]: >2

CO[C@H]1/C=C/O[C@@]2(C)Oc3c(C)c(O)c4c(O)c(c(/C=N/N5CCN(C)CC5)c(O)c4c3C2=O)NC(=O)/C(C)=C\C=C\[C@H](C)[C@H](O)[C@@H](C)[C@@H](O)[C@@H](C)[C@H](OC(C)=O)[C@@H]1C [RIFAMPIN]
MIC [3]: < 1 µM | MIC [4]: < 1 µM | MIC [12]: 2 µM (≈ 1.65 µg/mL) | Ratio [47]: >32 | MIC [18]: 4 µM (≈ 3.29 µg/mL) | MIC [21]: < 1 µM | MIC [31]: 32 µM (≈ 26.3 µg/mL) | Activity [48]: Active | MIC [38]: 32 µM (≈ 26.3 µg/mL)
